# System: PDE10A
# Conditions: monkey, PET
# Protocol: The monkey is sedated with ketamin (approximately 10 mg/kg), weighed, and maintained on a constant infusion of ketamin 15 mg/kg/h during transport. During transport the monkey is monitored by pulse oximetry and supported by oxygen. One venous catheter is applied for tracer administration and one venous catheter for blood radioactivity and PK sampling. Propofol is administered until the animal is anesthetized enough to intubate. After intubation the animal is maintained on sevoflurane inhalation anesthesia and artificial ventilation.
# Blood samples (0.2 mL for radioactivity determination are taken at 0.5, 1, 3, 5, 10, 15, 20, 30, 45, 60 and 90 minutes after injection. The samples are labeled with time, date, sampling time in relation to injection, and project number.
# PET scanning and arterial blood sampling is commenced upon start of the administration of the radiolabelled compound.
compound,measurement,setting,value
"Cc1ccc(C)n2nc(CCc3nc(-c4ccccc4)cn3[11CH3])nc12 [[11C]Lu AE92686, 5,8-dimethyl-2-[2-([^11C-1-methyl]-4-phenyl-1H-imidazol-2-yl)-ethyl]-[1,2,4]triazolo[1,5-a]pyridine]",concentration in cerebellum,cerebellum (very low level of PDE10A),low
same,uptake and retention in striatum,striatum versus other brain regions,highest uptake and retention
same,brain entry,i.v. bolus,readily enters the brain
same,time of peak regional tissue concentrations in brain,"i.v. bolus, post injection",10 to 15 min

# — patent US8592449B1, “Radiolabelled phenylimidazole-based ligands” (H. Lundbeck A/S, priority 2010, dated 2013)
